Measurements from patent US10213429B2, “Imidazo-pyrazinyl derivatives useful as soluble guanylate cyclase activators” (Merck Sharp & Dohme Corp., priority 2015, dated 2019).

Tests used:
sGC α1/β1 heterodimer = molecular target: T1, sGC α1/β1 heterodimer (Homo sapiens, UniProt Q02108+Q02153); assay: Cell-Based sGC Functional Assay (CASA Assay), cGMP by HTRF in CHO-K1/sGC cells; settings: for Emax: CHO-K1, percent activation relative to maximum cGMP production of Compound A (= 100%), read-out: % Act.; for EC50: cGMP production, 1 hr at 37° C., 4P fit, presence or absence of 1 μM DETA-NO not given, read-out: IP (nM) (inflection point)
T1 construct: expressed in transfected cells; host or cells: CHO-K1 (clone #7, CHO-K1/sGC)
T1 sequence (Q02108 1-690): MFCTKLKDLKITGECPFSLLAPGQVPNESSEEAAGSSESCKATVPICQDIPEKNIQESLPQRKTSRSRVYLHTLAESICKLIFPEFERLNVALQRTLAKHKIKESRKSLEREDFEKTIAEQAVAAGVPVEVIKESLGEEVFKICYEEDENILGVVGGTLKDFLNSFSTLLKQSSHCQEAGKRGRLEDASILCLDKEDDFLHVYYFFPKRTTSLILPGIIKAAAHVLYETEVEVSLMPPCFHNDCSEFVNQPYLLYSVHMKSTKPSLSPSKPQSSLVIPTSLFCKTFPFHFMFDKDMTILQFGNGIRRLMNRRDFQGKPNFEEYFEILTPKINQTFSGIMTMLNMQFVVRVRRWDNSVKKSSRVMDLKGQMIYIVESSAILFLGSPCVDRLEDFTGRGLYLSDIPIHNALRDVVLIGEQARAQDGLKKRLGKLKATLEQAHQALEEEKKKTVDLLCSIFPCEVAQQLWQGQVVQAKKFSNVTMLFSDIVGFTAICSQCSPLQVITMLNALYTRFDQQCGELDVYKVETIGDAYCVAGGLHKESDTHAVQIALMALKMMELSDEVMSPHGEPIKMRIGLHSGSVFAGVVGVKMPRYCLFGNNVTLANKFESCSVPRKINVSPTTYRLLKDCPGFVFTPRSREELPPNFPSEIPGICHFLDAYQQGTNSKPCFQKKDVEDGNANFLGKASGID
T1 sequence (Q02153 1-619): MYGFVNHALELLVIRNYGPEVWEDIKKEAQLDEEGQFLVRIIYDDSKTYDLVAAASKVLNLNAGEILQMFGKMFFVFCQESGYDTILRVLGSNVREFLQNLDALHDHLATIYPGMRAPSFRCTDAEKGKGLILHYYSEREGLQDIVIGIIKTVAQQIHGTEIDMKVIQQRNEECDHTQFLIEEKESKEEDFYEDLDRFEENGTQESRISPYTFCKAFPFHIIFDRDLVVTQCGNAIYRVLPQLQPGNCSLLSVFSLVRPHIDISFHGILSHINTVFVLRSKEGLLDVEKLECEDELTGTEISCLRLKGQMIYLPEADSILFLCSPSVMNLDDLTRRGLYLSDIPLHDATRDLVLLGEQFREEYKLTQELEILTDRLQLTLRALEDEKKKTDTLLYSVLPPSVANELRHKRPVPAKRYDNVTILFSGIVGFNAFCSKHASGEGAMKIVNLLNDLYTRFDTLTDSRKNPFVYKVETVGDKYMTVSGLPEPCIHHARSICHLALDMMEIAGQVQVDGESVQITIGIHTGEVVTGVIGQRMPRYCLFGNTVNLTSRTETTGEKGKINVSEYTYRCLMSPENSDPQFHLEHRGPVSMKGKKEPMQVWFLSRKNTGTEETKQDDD
Method in brief: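 CHO-K1 cells stably expressing human sGC α1/β1, in EBSS buffer with 5 mM MgCl2, 10 mM HEPES, 0.05% BSA and 0.5 mM IBMX, incubated with compound (2.5% DMSO) ± 1 μM DETA-NO, 1 h, 37 °C. Intracellular cGMP read by HTRF; activity as % of reference activator maximum, IP from 4-parameter fit.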

[1] = tested on: Spontaneously hypertensive rats (SHR); assay: Acute Efficacy in Spontaneously Hypertensive Rats (SHR), telemetry blood pressure; assay type: in vivo, rat; settings: SHR male
Description: Acute Efficacy in Spontaneously Hypertensive Rats (SHR)
Spontaneously hypertensive rats (SHR, male, Charles River) were implanted with DSI TA11PA-C40 telemetry device (Data Sciences, Inc., St. Paul, Minn.) under isoflurane or ketamine/metomidine anesthesia. The telemetry unit catheter was inserted into the descending aorta via the femoral artery and the telemetry device was implanted subcutaneously in the left flank area. Animals were allowed to recover from surgery for 14 days before the start of any studies. Blood pressure, heart rate, and activity signals from conscious, freely moving rats were recorded continuously for 30 seconds every 10 minutes. On the day prior to administration of compound, a single oral dose of vehicle (10% transcutol/20% Cremophor/70% water) was administered to all animals to establish baseline control data. The blood pressure lowering efficacy of compound (PO) or vehicle was evaluated following a single oral gavage. Data were collected as hourly averages, and changes in blood pressure were calculated by subtracting control baseline data on an hourly basis. Animals were maintained on normal diet with a 12 hour light-dark cycle.
Maximum peak decreases of systolic blood pressure (SBP) in SHR at a particular P.O. dose (mpk milligrams per kilogram) for the following representative compounds are provided. • Category A=SBP in SHRs<20 mmHg; Category B=SBP in SHRs 20-40 mmHg; • Category C=SBP in SHRs>40 mmHg

| SMILES | Emax (sGC α1/β1 heterodimer) [%] | EC50 (sGC α1/β1 heterodimer) [nM] | Cat. (maximum peak decrease of systolic blood pressure (SBP) in SHR) ([1]; single oral dose 1.0 mpk P.O.) | Cat. (maximum peak decrease of systolic blood pressure (SBP) in SHR) ([1]; single oral dose 0.3 mpk P.O.) | Cat. (maximum peak decrease of systolic blood pressure (SBP) in SHR) ([1]; single oral dose 3.0 mpk P.O.) | Cat. (maximum peak decrease of systolic blood pressure (SBP) in SHR) ([1]; single oral dose 2.0 mpk P.O.) |
| --- | --- | --- | --- | --- | --- | --- |
| O=C1Nc2nc(-c3cn4ccnc4c(CCCC(F)(F)F)n3)nc(O)c2C1(c1ccc(F)cc1)C1CC1 (stereo not drawn) [Example 35B, 5-cyclopropyl-5-(4-fluorophenyl)-4-hydroxy-2-(8-(4,4,4-trifluorobutyl)imidazo[1,2-a]pyrazin-6-yl)-5H-pyrrolo[2,3-d]pyrimidin-6(7H)-one] | 148 | 190 |  |  | A (Category A=SBP in SHRs<20 mmHg) |  |
| O=C1Nc2nc(-c3cn4ccnc4c(CCCC(F)(F)F)n3)nc(O)c2C1(c1ccc(Cl)cc1)C1CC1 (stereo not drawn) [Example 24B, 5-(4-chlorophenyl)-5-cyclopropyl-4-hydroxy-2-(8-(4,4,4-trifluorobutyl)imidazo[1,2-a]pyrazin-6-yl)-5H-pyrrolo[2,3-d]pyrimidin-6(7H)-one] | 169 | 106 |  |  | A (Category A=SBP in SHRs<20 mmHg) |  |
| CC1(c2ccc(Cl)cc2)C(=O)Nc2nc(-c3cn4ccnc4c(CCC(F)(F)C(F)(F)F)n3)nc(O)c21 (stereo not drawn) [Example 4A, 5-(4-chlorophenyl)-4-hydroxy-5-methyl-2-(8-(3,3,4,4,4-pentafluorobutyl)imidazo[1,2-a]pyrazin-6-yl)-5H-pyrrolo[2,3-d]pyrimidin-6(7H)-one] | 83 | 125 |  |  | B (Category B=SBP in SHRs 20-40 mmHg) |  |
| CC1(c2ccc(Cl)cn2)C(=O)Nc2nc(-c3cn4ccnc4c(CCC(F)(F)C(F)(F)F)n3)nc(O)c21 (stereo not drawn) [Example 17A, 5-(5-chloropyridin-2-yl)-4-hydroxy-5-methyl-2-(8-(3,3,4,4,4-pentafluorobutyl)imidazo[1,2-a]pyrazin-6-yl)-5H-pyrrolo[2,3-d]pyrimidin-6(7H)-one] | 90 | 294 | A (Category A=SBP in SHRs<20 mmHg) |  |  |  |
| O=C1Nc2nc(-c3cn4ccnc4c(CCCC(F)(F)F)n3)ncc2C1(c1ccc(F)cn1)C1CC1 (stereo not drawn) [Example 54A, 5-cyclopropyl-5-(5-fluoropyridin-2-yl)-2-(8-(4,4,4-trifluorobutyl)imidazo[1,2-a]pyrazin-6-yl)-5H-pyrrolo[2,3-d]pyrimidin-6(7H)-one] | 137 | 21 | A (Category A=SBP in SHRs<20 mmHg) |  |  |  |
| O=C1Nc2nc(-c3cn4ccnc4c(CCCC(F)(F)F)n3)ncc2C1(c1ccc(Cl)cc1F)C1CC1 (stereo not drawn) [Example 46A, 5-(4-chloro-2-fluorophenyl)-5-cyclopropyl-2-(8-(4,4,4-trifluorobutyl)imidazo[1,2-a]pyrazin-6-yl)-5H-pyrrolo[2,3-d]pyrimidin-6(7H)-one] | 135 | 10 |  |  |  |  |
| O=C1Nc2nc(-c3cn4ccnc4c(CCCC(F)(F)F)n3)ncc2C1(c1ccc(F)cc1)C1CC1 (stereo not drawn) [Example 60B, 5-cyclopropyl-5-(4-fluorophenyl)-2-(8-(4,4,4-trifluorobutyl)imidazo[1,2-a]pyrazin-6-yl)-5H-pyrrolo[2,3-d]pyrimidin-6(7H)-one] | 126 | 30 |  |  |  |  |
| CCCCc1nc(-c2ncc3c(n2)NC(=O)C3(c2ccc(Cl)c(F)c2)C2CC2)cn2ccnc12 (stereo not drawn) [Example 47A, 2-(8-butylimidazo[1,2-a]pyrazin-6-yl)-5-(4-chloro-3-fluorophenyl)-5-cyclopropyl-5H-pyrrolo[2,3-d]pyrimidin-6(7H)-one] | 123 | 11 |  |  |  |  |

The next lines start with results.

| Emax (sGC α1/β1 heterodimer) [%] | EC50 (sGC α1/β1 heterodimer) [nM] | SMILES | Cat. (maximum peak decrease of systolic blood pressure (SBP) in SHR) ([1]; single oral dose 1.0 mpk P.O.) | Cat. (maximum peak decrease of systolic blood pressure (SBP) in SHR) ([1]; single oral dose 0.3 mpk P.O.) | Cat. (maximum peak decrease of systolic blood pressure (SBP) in SHR) ([1]; single oral dose 3.0 mpk P.O.) | Cat. (maximum peak decrease of systolic blood pressure (SBP) in SHR) ([1]; single oral dose 2.0 mpk P.O.) |
| --- | --- | --- | --- | --- | --- | --- |
| 95 | 70 | CC1(c2ccc(Cl)c(F)c2)C(=O)Nc2nc(-c3cn4ccnc4c(CCC(F)(F)F)n3)ncc21 (stereo not drawn) [Example 56B, 5-(4-chloro-3-fluorophenyl)-5-methyl-2-(8-(3,3,3-trifluoropropyl)imidazo[1,2-a]pyrazin-6-yl)-5H-pyrrolo[2,3-d]pyrimidin-6(7H)-one] | A (Category A=SBP in SHRs<20 mmHg) |  |  |  |
| 102 | 71 | CC1(c2ccc(F)cn2)C(=O)Nc2nc(-c3cn4ccnc4c(CC4CCC4)n3)ncc21 (stereo not drawn) [Example 65B, 2-(8-(cyclobutylmethyl)imidazo[1,2-a]pyrazin-6-yl)-5-(5-fluoropyridin-2-yl)-5-methyl-5H-pyrrolo[2,3-d]pyrimidin-6(7H)-one] |  | B (Category B=SBP in SHRs 20-40 mmHg) |  |  |
| 125 | 217 | CC1(c2ccc(F)cn2)C(=O)Nc2nc(-c3cn4ccnc4c(CCCC(F)(F)F)n3)ncc21 (stereo not drawn) [Example 66B, 5-(5-fluoropyridin-2-yl)-5-methyl-2-(8-(4,4,4-trifluorobutyl)imidazo[1,2-a]pyrazin-6-yl)-5H-pyrrolo[2,3-d]pyrimidin-6(7H)-one] | A (Category A=SBP in SHRs<20 mmHg) |  |  |  |
| 120 | 74 | O=C1Nc2nc(-c3cn4ccnc4c(CCCC(F)(F)F)n3)ncc2C1(c1ccc(Cl)cn1)C1CC1 (stereo not drawn) [Example 9A, 5-(5-chloropyridin-2-yl)-5-cyclopropyl-2-(8-(4,4,4-trifluorobutyl)imidazo[1,2-a]pyrazin-6-yl)-5H-pyrrolo[2,3-d]pyrimidin-6(7H)-one] |  |  |  | B (Category B=SBP in SHRs 20-40 mmHg) |
| 118 | 34 | CC1(c2ccc(Cl)cc2)C(=O)Nc2nc(-c3cn4ccnc4c(CCC(F)(F)C(F)(F)F)n3)ncc21 (stereo not drawn) [Example 3A, 5-(4-chlorophenyl)-5-methyl-2-(8-(3,3,4,4,4-pentafluorobutyl)imidazo[1,2-a]pyrazin-6-yl)-5H-pyrrolo[2,3-d]pyrimidin-6(7H)-one] | B (Category B=SBP in SHRs 20-40 mmHg) |  |  |  |
| 124 | 4 | CC1(c2ccc(Cl)cn2)C(=O)Nc2nc(-c3cn4ccnc4c(Cc4ccc(F)cc4)n3)ncc21 (stereo not drawn) [Example 42A, 5-(5-chloropyridin-2-yl)-2-(8-(4-fluorobenzyl)imidazo[1,2-a]pyrazin-6-yl)-5-methyl-5H-pyrrolo[2,3-d]pyrimidin-6(7H)-one] |  | B (Category B=SBP in SHRs 20-40 mmHg) |  |  |
| 188 | 73 | CCCCc1nc(-c2ncc3c(n2)NC(=O)C3(c2ccc(Cl)cn2)C2CC2)cn2ccnc12 (stereo not drawn) [Example 55A, 2-(8-butylimidazo[1,2-a]pyrazin-6-yl)-5-(5-chloropyridin-2-yl)-5-cyclopropyl-5H-pyrrolo[2,3-d]pyrimidin-6(7H)-one] |  |  |  | B (Category B=SBP in SHRs 20-40 mmHg) |
